# In ChEMBL document CHEMBL4765227, “Hit to lead optimization of a series of N-[4-(1,3-benzothiazol-2-yl)phenyl]acetamides as monoacylglycerol lipase inhibitors with potential anticancer activity” (Eur J Med Chem, 2016):
# Assays:
# Format in all cases: functional
# Details in all cases: read-out: GI
# [1] = test system: HOP-62; test: Growth inhibition of human HOP-62 cells at 10 uM incubated for 48 hrs by sulforhodamine B assay relative to control
# [2] = test system: NCI-H522; test: Growth inhibition of human NCI-H522 cells at 10 uM incubated for 48 hrs by sulforhodamine B assay relative to control
# [3] = test system: SF-268; test: Growth inhibition of human SF-268 cells at 10 uM incubated for 48 hrs by sulforhodamine B assay relative to control
# [4] = test system: MDA-MB-468; test: Growth inhibition of human MDA-MB-468 cells at 10 uM incubated for 48 hrs by sulforhodamine B assay relative to control
# [5] = test system: UACC-257; test: Growth inhibition of human UACC-257 cells at 10 uM incubated for 48 hrs by sulforhodamine B assay relative to control
# [6] = test system: HCT-15; test: Growth inhibition of human HCT-15 cells at 10 uM incubated for 48 hrs by sulforhodamine B assay relative to control
# [7] = test system: K562; test: Growth inhibition of human K562 cells at 10 uM incubated for 48 hrs by sulforhodamine B assay relative to control
# [8] = test system: LOX IMVI; test: Growth inhibition of human LOX IMVI cells at 10 uM incubated for 48 hrs by sulforhodamine B assay relative to control
# [9] = test system: RPMI-8226; test: Growth inhibition of human RPMI-8226 cells at 10 uM incubated for 48 hrs by sulforhodamine B assay relative to control
# [10] = test system: MDA-MB-231; test: Growth inhibition of human MDA-MB-231 cells at 10 uM incubated for 48 hrs by sulforhodamine B assay relative to control
# [11] = test system: HT-29; test: Growth inhibition of human HT-29 cells at 10 uM incubated for 48 hrs by sulforhodamine B assay relative to control
# [12] = test system: NCI-H23; test: Growth inhibition of human NCI-H23 cells at 10 uM incubated for 48 hrs by sulforhodamine B assay relative to control
# [13] = test system: TK-10; test: Growth inhibition of human TK-10 cells at 10 uM incubated for 48 hrs by sulforhodamine B assay relative to control
# [14] = test system: RXF 393; test: Growth inhibition of human RXF 393 cells at 10 uM incubated for 48 hrs by sulforhodamine B assay relative to control
# [15] = test system: HL-60(TB); test: Growth inhibition of human HL-60(TB) cells at 10 uM incubated for 48 hrs by sulforhodamine B assay relative to control
# [16] = test system: OVCAR-4; test: Growth inhibition of human OVCAR-4 cells at 10 uM incubated for 48 hrs by sulforhodamine B assay relative to control
# [17] = test system: ACHN; test: Growth inhibition of human ACHN cells at 10 uM incubated for 48 hrs by sulforhodamine B assay relative to control
# [18] = test system: SK-MEL-28; test: Growth inhibition of human SK-MEL-28 cells at 10 uM incubated for 48 hrs by sulforhodamine B assay relative to control
# [19] = test system: HCC 2998; test: Growth inhibition of human HCC 2998 cells at 10 uM incubated for 48 hrs by sulforhodamine B assay relative to control
# [20] = test system: OVCAR-8; test: Growth inhibition of human OVCAR-8 cells at 10 uM incubated for 48 hrs by sulforhodamine B assay relative to control
# [21] = test system: SR; test: Growth inhibition of human SR cells at 10 uM incubated for 48 hrs by sulforhodamine B assay relative to control
# [22] = test system: BT-549; test: Growth inhibition of human BT-549 cells at 10 uM incubated for 48 hrs by sulforhodamine B assay relative to control
# [23] = test system: HOP-92; test: Growth inhibition of human HOP-92 cells at 10 uM incubated for 48 hrs by sulforhodamine B assay relative to control
# [24] = test system: SK-OV-3; test: Growth inhibition of human SK-OV-3 cells at 10 uM incubated for 48 hrs by sulforhodamine B assay relative to control
# [25] = test system: UO-31; test: Growth inhibition of human UO-31 cells at 10 uM incubated for 48 hrs by sulforhodamine B assay relative to control
# [26] = test system: M14; test: Growth inhibition of human M14 cells at 10 uM incubated for 48 hrs by sulforhodamine B assay relative to control
# [27] = test system: SN12C; test: Growth inhibition of human SN12C cells at 10 uM incubated for 48 hrs by sulforhodamine B assay relative to control
# [28] = test system: SF-539; test: Growth inhibition of human SF-539 cells at 10 uM incubated for 48 hrs by sulforhodamine B assay relative to control
# [29] = test system: PC-3; test: Growth inhibition of human PC-3 cells at 10 uM incubated for 48 hrs by sulforhodamine B assay relative to control
# [30] = test system: U-251; test: Growth inhibition of human U-251 cells at 10 uM incubated for 48 hrs by sulforhodamine B assay relative to control
# [31] = test system: DU-145; test: Growth inhibition of human DU-145 cells at 10 uM incubated for 48 hrs by sulforhodamine B assay relative to control
# [32] = test system: T47D; test: Growth inhibition of human T47D cells at 10 uM incubated for 48 hrs by sulforhodamine B assay relative to control
# [33] = test system: A549; test: Growth inhibition of human A549/ATCC cells at 10 uM incubated for 48 hrs by sulforhodamine B assay relative to control
# [34] = test system: HCT-116; test: Growth inhibition of human HCT-116 cells at 10 uM incubated for 48 hrs by sulforhodamine B assay relative to control
# [35] = test system: CCRF-CEM; test: Growth inhibition of human CCRF-CEM cells at 10 uM incubated for 48 hrs by sulforhodamine B assay relative to control
# [36] = test system: SF-295; test: Growth inhibition of human SF-295 cells at 10 uM incubated for 48 hrs by sulforhodamine B assay relative to control
# [37] = test system: UACC-62; test: Growth inhibition of human UACC-62 cells at 10 uM incubated for 48 hrs by sulforhodamine B assay relative to control
# [38] = test system: MCF7; test: Growth inhibition of human MCF7 cells at 10 uM incubated for 48 hrs by sulforhodamine B assay relative to control
# [39] = test system: KM12; test: Growth inhibition of human KM12 cells at 10 uM incubated for 48 hrs by sulforhodamine B assay relative to control
# [40] = test system: MDA-MB-435; test: Growth inhibition of human MDA-MB-435 cells at 10 uM incubated for 48 hrs by sulforhodamine B assay relative to control
# [41] = test system: SNB-19; test: Growth inhibition of human SNB-19 cells at 10 uM incubated for 48 hrs by sulforhodamine B assay relative to control
# [42] = test system: SNB-75; test: Growth inhibition of human SNB-75 cells at 10 uM incubated for 48 hrs by sulforhodamine B assay relative to control
# [43] = test system: SK-MEL-5; test: Growth inhibition of human SK-MEL-5 cells at 10 uM incubated for 48 hrs by sulforhodamine B assay relative to control
# [44] = test system: MOLT-4; test: Growth inhibition of human MOLT-4 cells at 10 uM incubated for 48 hrs by sulforhodamine B assay relative to control
smiles,measurement,setting,value
NS(=O)(=O)c1ccc(NCC(=O)Nc2ccc(-c3nc4ccccc4s3)cc2)cc1,inhibition of growth at 10 µM,[1],-17.8%
same,inhibition of growth at 10 µM,[2],164%
same,inhibition of growth at 10 µM,[3],74.9%
same,inhibition of growth at 10 µM,[4],95.7%
same,inhibition of growth at 10 µM,[5],2.83%
same,inhibition of growth at 10 µM,[6],53.4%
same,inhibition of growth at 10 µM,[7],91.6%
same,inhibition of growth at 10 µM,[8],87%
same,inhibition of growth at 10 µM,[9],63.3%
same,inhibition of growth at 10 µM,[10],55%
same,inhibition of growth at 10 µM,[11],25.5%
same,inhibition of growth at 10 µM,[12],25.3%
same,inhibition of growth at 10 µM,[13],-5.51%
same,inhibition of growth at 10 µM,[14],0.08%
same,inhibition of growth at 10 µM,[15],66.6%
same,inhibition of growth at 10 µM,[16],32.8%
same,inhibition of growth at 10 µM,[17],-4.96%
same,inhibition of growth at 10 µM,[18],0.58%
same,inhibition of growth at 10 µM,[19],12.4%
same,inhibition of growth at 10 µM,[20],17.3%
same,inhibition of growth at 10 µM,[21],84%
same,inhibition of growth at 10 µM,[22],85.5%
same,inhibition of growth at 10 µM,[23],26.5%
same,inhibition of growth at 10 µM,[24],-5.77%
same,inhibition of growth at 10 µM,[25],25.6%
same,inhibition of growth at 10 µM,[26],54.4%
same,inhibition of growth at 10 µM,[27],52.2%
same,inhibition of growth at 10 µM,[28],8.62%
same,inhibition of growth at 10 µM,[29],35.3%
same,inhibition of growth at 10 µM,[30],28.7%
same,inhibition of growth at 10 µM,[31],53%
same,inhibition of growth at 10 µM,[32],53.6%
same,inhibition of growth at 10 µM,[33],7.37%
same,inhibition of growth at 10 µM,[34],74.9%
same,inhibition of growth at 10 µM,[35],93.8%
same,inhibition of growth at 10 µM,[36],1.17%
same,inhibition of growth at 10 µM,[37],62%
same,inhibition of growth at 10 µM,[38],72.4%
same,inhibition of growth at 10 µM,[39],38.4%
same,inhibition of growth at 10 µM,[40],23%
same,inhibition of growth at 10 µM,[41],25.7%
same,inhibition of growth at 10 µM,[42],30.5%
same,inhibition of growth at 10 µM,[43],28.7%
same,inhibition of growth at 10 µM,[44],93.8%
O=C(CNc1nc(-c2ccc(Cl)cc2)cs1)Nc1ccc(-c2nc3ccccc3s2)cc1,inhibition of growth at 10 µM,[1],-6.21%
same,inhibition of growth at 10 µM,[2],6.86%
same,inhibition of growth at 10 µM,[3],9.23%
same,inhibition of growth at 10 µM,[4],140%
same,inhibition of growth at 10 µM,[5],-0.39%
same,inhibition of growth at 10 µM,[6],-10.2%
same,inhibition of growth at 10 µM,[7],3.58%
same,inhibition of growth at 10 µM,[8],4.39%
same,inhibition of growth at 10 µM,[9],12.6%
same,inhibition of growth at 10 µM,[10],15.3%
same,inhibition of growth at 10 µM,[11],-8.34%
same,inhibition of growth at 10 µM,[12],12.4%
same,inhibition of growth at 10 µM,[13],33.5%
same,inhibition of growth at 10 µM,[14],-6.02%
same,inhibition of growth at 10 µM,[15],0.71%
same,inhibition of growth at 10 µM,[16],29.5%
same,inhibition of growth at 10 µM,[17],-5.08%
same,inhibition of growth at 10 µM,[18],-10.9%
same,inhibition of growth at 10 µM,[19],2.47%
same,inhibition of growth at 10 µM,[20],2.01%
same,inhibition of growth at 10 µM,[21],10.3%
same,inhibition of growth at 10 µM,[22],-6.9%
same,inhibition of growth at 10 µM,[23],7.09%
same,inhibition of growth at 10 µM,[24],4.97%
same,inhibition of growth at 10 µM,[25],25.1%
same,inhibition of growth at 10 µM,[26],11.8%
same,inhibition of growth at 10 µM,[27],-0.85%
same,inhibition of growth at 10 µM,[28],3.03%
same,inhibition of growth at 10 µM,[29],9.25%
same,inhibition of growth at 10 µM,[30],8.44%
same,inhibition of growth at 10 µM,[31],5.04%
same,inhibition of growth at 10 µM,[32],43.9%
same,inhibition of growth at 10 µM,[33],0.99%
same,inhibition of growth at 10 µM,[34],4.49%
same,inhibition of growth at 10 µM,[35],7.04%
same,inhibition of growth at 10 µM,[36],1.37%
same,inhibition of growth at 10 µM,[37],8.08%
same,inhibition of growth at 10 µM,[38],70.2%
same,inhibition of growth at 10 µM,[39],0.97%
same,inhibition of growth at 10 µM,[40],-4.48%
same,inhibition of growth at 10 µM,[41],1.83%
same,inhibition of growth at 10 µM,[42],22.2%
same,inhibition of growth at 10 µM,[43],12.3%
same,inhibition of growth at 10 µM,[44],7.26%
